IC50 data for nine compounds are collected here from US20090304692A1, “TRIAZINE COMPOUNDS AS PI3 KINASE AND MTOR INHIBITORS” (Wyeth, priority 2008, published 2009).

As usually defined, the IC50 is the concentration at which inhibition is half-maximal.

For test [1], the system named is human prostate LNCap tumor cell line. Kind of test: In vitro cell culture growth assay (MTS), LNCap. To be noted: read-out: IC50 LNCap.
A further test concerns the target PI3K-γ (Homo sapiens, UniProt P48736). Kind of test: PI3K-gamma fluorescence polarization assay. To be noted: read-out: IC50 PI3Kγ. Background: Fluorescence polarisation rises when a labelled molecule tumbles more slowly, as on binding a larger partner.
For the next test, the target named is PI3K-α (Homo sapiens, UniProt P42336). Nature of the test: PI3K-alpha fluorescence polarization assay. To be noted: read-out: IC50 PI3Kα.
Chain of PI3K-α (P42336 whole entry, species assumed): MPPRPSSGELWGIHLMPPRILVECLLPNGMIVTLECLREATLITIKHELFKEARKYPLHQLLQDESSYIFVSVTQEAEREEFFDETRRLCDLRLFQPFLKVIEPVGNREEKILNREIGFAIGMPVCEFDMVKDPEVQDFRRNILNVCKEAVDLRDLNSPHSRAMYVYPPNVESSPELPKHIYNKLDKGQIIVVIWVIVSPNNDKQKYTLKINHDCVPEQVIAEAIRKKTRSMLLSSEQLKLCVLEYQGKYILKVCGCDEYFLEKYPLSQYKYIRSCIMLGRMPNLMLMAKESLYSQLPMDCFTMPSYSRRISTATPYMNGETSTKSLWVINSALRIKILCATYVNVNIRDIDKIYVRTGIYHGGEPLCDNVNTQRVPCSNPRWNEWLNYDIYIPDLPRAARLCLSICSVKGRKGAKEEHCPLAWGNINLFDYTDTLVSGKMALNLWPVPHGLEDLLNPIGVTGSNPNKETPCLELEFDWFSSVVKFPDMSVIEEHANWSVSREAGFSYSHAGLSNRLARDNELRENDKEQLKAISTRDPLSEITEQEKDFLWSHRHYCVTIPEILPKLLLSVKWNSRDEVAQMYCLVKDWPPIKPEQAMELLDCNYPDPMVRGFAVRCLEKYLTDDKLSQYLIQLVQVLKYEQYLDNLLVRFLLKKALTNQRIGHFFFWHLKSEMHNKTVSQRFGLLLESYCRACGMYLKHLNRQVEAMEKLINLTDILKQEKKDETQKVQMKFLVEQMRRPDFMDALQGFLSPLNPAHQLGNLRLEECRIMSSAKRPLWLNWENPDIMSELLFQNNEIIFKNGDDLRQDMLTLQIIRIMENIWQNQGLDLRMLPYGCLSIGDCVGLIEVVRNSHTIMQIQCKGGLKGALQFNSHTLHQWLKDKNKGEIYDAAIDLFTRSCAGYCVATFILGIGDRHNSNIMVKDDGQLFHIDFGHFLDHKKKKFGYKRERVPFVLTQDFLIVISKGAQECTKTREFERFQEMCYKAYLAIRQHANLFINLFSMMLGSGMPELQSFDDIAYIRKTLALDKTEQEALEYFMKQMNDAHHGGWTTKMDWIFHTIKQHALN
Chain of PI3K-α (P27986 whole entry partner, species assumed): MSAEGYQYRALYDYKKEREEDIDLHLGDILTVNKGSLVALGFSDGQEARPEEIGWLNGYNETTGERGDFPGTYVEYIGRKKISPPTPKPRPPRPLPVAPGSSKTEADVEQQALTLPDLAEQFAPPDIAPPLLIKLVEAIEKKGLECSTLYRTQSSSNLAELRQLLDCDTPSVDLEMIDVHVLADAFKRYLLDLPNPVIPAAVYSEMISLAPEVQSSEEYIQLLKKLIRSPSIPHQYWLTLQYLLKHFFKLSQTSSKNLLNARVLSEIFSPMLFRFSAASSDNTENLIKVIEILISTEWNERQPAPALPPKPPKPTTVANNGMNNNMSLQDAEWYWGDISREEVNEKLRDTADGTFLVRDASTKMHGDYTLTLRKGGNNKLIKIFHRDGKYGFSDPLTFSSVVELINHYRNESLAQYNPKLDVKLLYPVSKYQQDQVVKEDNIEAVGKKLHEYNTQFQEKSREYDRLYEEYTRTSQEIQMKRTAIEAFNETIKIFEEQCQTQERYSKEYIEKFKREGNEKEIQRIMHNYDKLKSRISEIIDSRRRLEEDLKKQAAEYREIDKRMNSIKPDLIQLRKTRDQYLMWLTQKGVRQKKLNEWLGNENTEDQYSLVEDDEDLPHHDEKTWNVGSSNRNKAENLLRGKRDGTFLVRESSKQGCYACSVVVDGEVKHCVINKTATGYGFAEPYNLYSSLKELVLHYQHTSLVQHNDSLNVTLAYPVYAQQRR
The mark [2] stands for this setting: MTS cell growth assay, three days after drug treatment.

Like-named read-outs stand apart in the source and are kept apart here.

Chain of PI3K-γ (P48736 whole entry, species assumed): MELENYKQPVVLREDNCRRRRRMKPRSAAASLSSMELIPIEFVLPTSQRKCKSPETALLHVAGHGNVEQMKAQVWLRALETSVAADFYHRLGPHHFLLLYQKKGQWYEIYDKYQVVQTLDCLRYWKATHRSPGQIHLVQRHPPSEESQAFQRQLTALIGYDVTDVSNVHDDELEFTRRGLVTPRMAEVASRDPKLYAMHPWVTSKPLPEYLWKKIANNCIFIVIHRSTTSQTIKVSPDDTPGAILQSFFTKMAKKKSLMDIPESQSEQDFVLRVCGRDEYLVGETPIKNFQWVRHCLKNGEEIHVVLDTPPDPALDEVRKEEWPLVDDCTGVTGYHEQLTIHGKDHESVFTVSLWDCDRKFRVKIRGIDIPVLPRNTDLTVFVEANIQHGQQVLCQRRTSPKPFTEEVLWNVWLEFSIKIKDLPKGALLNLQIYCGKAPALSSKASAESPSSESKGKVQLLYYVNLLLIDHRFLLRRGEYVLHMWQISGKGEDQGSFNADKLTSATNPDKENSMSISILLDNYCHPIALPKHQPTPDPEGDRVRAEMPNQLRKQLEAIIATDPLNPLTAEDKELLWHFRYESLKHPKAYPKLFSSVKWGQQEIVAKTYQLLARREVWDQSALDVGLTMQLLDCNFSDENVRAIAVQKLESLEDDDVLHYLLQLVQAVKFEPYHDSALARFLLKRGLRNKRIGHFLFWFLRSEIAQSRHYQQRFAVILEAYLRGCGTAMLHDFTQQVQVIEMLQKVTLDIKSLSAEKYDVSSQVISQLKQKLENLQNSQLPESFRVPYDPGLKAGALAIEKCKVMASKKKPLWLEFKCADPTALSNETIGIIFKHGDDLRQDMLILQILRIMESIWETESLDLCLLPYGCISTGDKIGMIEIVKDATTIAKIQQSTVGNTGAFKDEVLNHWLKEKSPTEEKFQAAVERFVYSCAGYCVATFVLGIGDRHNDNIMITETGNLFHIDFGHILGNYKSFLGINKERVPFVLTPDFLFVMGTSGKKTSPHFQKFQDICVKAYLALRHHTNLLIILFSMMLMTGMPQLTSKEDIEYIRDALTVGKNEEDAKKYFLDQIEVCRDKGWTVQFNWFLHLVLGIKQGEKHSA

For the compound “1-(4-{4-[(1-methylethyl)amino]-6-(8-oxa-3-azabicyclo[3.2.1]oct-3-yl)-1,3,5-triazin-2-yl}phenyl)-3-[6-(4-methylpiperazin-1-yl)pyridin-3-yl]urea [Example 216]”, the IC50 turned out to be 50 nM in test [1] (setting [2]), 7030 nM at PI3K-γ and 521 nM on PI3K-α.

In the case of `CNC(=O)Nc1ccc(-c2nc(N3CC4CCC(C3)O4)nc(N3CC4CNCC(C3)O4)n2)cc1` [Example 234, 1-methyl-3-{4-[4-(8-oxa-3-azabicyclo[3.2.1]oct-3-yl)-6-(9-oxa-3,7-diazabicyclo[3.3.1]non-3-yl)-1,3,5-triazin-2-yl]phenyl}urea], the IC50 is 10000 nM in test [1] (Homo sapiens, LNCaP, 72 h); 9530 nM at PI3K-γ; 4530 nM on PI3K-α.

Regarding `O=C(Nc1ccc(-c2nc(N3CC4CCC(C3)O4)nc(N3CC4CNCC(C3)O4)n2)cc1)Nc1cccnc1` [Example 235, 1-{4-[4-(8-oxa-3-azabicyclo[3.2.1]oct-3-yl)-6-(9-oxa-3,7-diazabicyclo[3.3.1]non-3-yl)-1,3,5-triazin-2-yl]phenyl}-3-pyridin-3-ylurea], the IC50 in test [1] (Homo sapiens, LNCaP, 72 h) was 7900 nM; on PI3K-γ it was 4110 nM; on PI3K-α, 3210 nM.

With `CN1CCN(c2ccc(NC(=O)Nc3ccc(-c4nc(N5C[C@H]6C[C@@H]5CO6)nc(N5C[C@H]6C[C@@H]5CO6)n4)cc3)cc2)CC1` [Example 314, 1-{4-[4,6-di-(1R,4R)-2-oxa-5-azabicyclo[2.2.1]hept-5-yl-1,3,5-triazin-2-yl]phenyl}-3-[4-(4-methylpiperazin-1-yl)phenyl]urea], the IC50 in test [1] (setting [2]) stood at 550 nM; at PI3K-γ, 10000 nM; at PI3K-α, 1820 nM.

Consider `CNC(=O)Nc1ccc(-c2nc(Nc3ccc(N4CCN(C)CC4)cc3)nc(N3CC4CCC(C3)O4)n2)cc1` [Example 317, 1-methyl-3-{4-[4-{[4-(4-methylpiperazin-1-yl)phenyl]amino}-6-(8-oxa-3-azabicyclo[3.2.1]oct-3-yl)-1,3,5-triazin-2-yl]phenyl}urea], for which the IC50 in test [1] (Homo sapiens, LNCaP, 72 h) worked out at 120 nM; on PI3K-γ, 6830 nM; at PI3K-α, 216 nM.

With `CN1CCN(c2ccc(Nc3nc(-c4ccc(NC(=O)Nc5ccc(C(N)=O)cc5)cc4)nc(N4CC5CCC(C4)O5)n3)cc2)CC1` [Example 318, 4-[({4-[4-{[4-(4-methylpiperazin-1-yl)phenyl]amino}-6-(8-oxa-3-azabicyclo[3.2.1]oct-3-yl)-1,3,5-triazin-2-yl]phenyl}carbamoyl)amino]benzamide], the IC50 in test [1] (Homo sapiens, LNCaP, 72 h) was found to be 1000 nM; at PI3K-γ, 679 nM; on PI3K-γ (listed as 334), 680 nM; at PI3K-α, 15.5 nM; at PI3K-α (listed as 334), 16 nM.

With `O=C(Nc1ccncc1)Nc1ccc(-c2nc(N3C4CCC3COC4)nc(N3[C@H](CO)CC[C@@H]3CO)n2)cc1` [Example 347, 1-(4-{4-[(2R,5S)-2,5-bis(hydroxymethyl)pyrrolidin-1-yl]-6-(3-oxa-8-azabicyclo[3.2.1]oct-8-yl)-1,3,5-triazin-2-yl}phenyl)-3-pyridin-4-ylurea], the IC50 came to 9 nM in test [1] (Homo sapiens, LNCaP, 72 h); 8440 nM at PI3K-γ; 796 nM at PI3K-α.

Take `CC(C)N1CCN(c2ccc(NC(=O)Nc3ccc(-c4nc(C5CCOCC5)nc(N5C6CCC5COC6)n4)cc3)cc2)CC1` [Example 435, 1-(4-(4-(3-oxa-8-azabicyclo[3.2.1]octan-8-yl)-6-(tetrahydro-2H-pyran-4-yl)-1,3,5-triazin-2-yl)phenyl)-3-(4-(4-isopropylpiperazin-1-yl)phenyl)urea]: the IC50 in test [1] (Homo sapiens, LNCaP, 72 h) was 4 nM; on PI3K-γ, 4600 nM.

In the case of `CN1CCN(c2ccc(NC(=O)Nc3ccc(-c4nc(N5C6COCC5COC6)nc(N5C6COCC5COC6)n4)cc3)cc2)CC1` [Example 823, 1-[4-(4,6-di-3,7-dioxa-9-azabicyclo[3.3.1]non-9-yl-1,3,5-triazin-2-yl)phenyl]-3-[4-(4-methylpiperazin-1-yl)phenyl]urea], the IC50 came to 55 nM in test [1] (Homo sapiens, LNCaP, 72 h); 2790 nM on PI3K-γ; 661 nM on PI3K-α.
